The values that follow are results of earlier work, collected in patent US20050208598A1 (priority 2004, published 2005).

In the series the target is avidin (Gallus gallus, UniProt P02701). To be noted: read-out: Kd of binding to avidin.
Sequence of avidin (P02701 25-152, species assumed): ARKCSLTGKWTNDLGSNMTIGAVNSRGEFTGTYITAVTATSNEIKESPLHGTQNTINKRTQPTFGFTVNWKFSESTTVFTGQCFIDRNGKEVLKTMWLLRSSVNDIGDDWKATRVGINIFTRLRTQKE

With `C[C@@H]1NC(=O)N[C@@H]1CCCCCC(=O)O` [desthiobiotin], the Kd – broadly, the equilibrium constant for the complex coming apart – was ~0.1 µM.
`O=C(O)c1ccccc1N=Nc1ccc(O)cc1` [HABA, 2-(4-hydroxyphenylazo)benzoic acid]: the Kd was ~6 µM.
